Reference: patent US7183260B2, “C-terminal modified oxamyl dipeptides as inhibitors of the ICE/ced-3 family of cysteine proteases” (Idun Pharmaceuticals, Inc., priority 1998, dated 2007)
Where a SMILES comes first, the peptide text is derived from it. The star is where a group is joined. Cbz = O=C(OCc1ccccc1)*; CH2F = FC*

How the values were obtained:
Assay type in all cases: biochemical
Details in all cases: continuous assay 60 min, reaction initiated by adding enzyme to substrate-inhibitor mixture
mICE = molecular target: T1, mICE (Mus musculus, UniProt P29452); experiment: Dissociation constant Ki and irreversible rate constant k3 for irreversible inhibitors (ICE)
T1 sequence (P29452 123-296 limits assumed): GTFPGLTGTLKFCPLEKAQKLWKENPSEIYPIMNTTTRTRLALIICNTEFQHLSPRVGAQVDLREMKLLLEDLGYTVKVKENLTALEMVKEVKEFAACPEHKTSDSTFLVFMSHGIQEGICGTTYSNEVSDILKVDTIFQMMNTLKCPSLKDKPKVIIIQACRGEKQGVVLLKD
T1 sequence (P29452 315-402 limits assumed): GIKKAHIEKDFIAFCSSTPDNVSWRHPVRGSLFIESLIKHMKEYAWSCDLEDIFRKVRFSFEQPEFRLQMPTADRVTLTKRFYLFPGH

CPP32 = molecular target: T2, CPP32 (Homo sapiens, UniProt P42574); experiment: Dissociation constant Ki and irreversible rate constant k3 for irreversible inhibitors (CPP32)
T2 sequence (P42574 29-175 limits assumed): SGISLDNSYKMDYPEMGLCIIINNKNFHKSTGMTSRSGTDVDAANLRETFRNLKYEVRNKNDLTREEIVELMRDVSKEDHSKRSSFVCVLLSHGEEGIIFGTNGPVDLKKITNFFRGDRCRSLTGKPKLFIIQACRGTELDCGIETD
T2 sequence (P42574 176-277 limits assumed): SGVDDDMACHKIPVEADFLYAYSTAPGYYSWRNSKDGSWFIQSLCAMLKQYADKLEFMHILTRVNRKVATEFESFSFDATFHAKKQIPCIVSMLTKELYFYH

MCH-5 = MCH-5 (Homo sapiens, UniProt Q14790); experiment: Dissociation constant Ki and irreversible rate constant k3 for irreversible inhibitors (Mch5)
Chain of MCH-5 (Q14790 217-374 limits assumed, species assumed): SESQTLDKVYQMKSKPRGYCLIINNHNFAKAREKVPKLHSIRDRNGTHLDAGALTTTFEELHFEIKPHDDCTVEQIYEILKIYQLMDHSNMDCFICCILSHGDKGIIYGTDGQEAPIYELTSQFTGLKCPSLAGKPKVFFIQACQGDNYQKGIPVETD
Chain of MCH-5 (Q14790 385-479 limits assumed, species assumed): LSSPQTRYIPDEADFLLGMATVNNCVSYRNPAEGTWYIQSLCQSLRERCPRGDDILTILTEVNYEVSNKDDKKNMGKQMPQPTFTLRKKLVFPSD

MCH-2 = molecular target: T3, MCH-2 (Homo sapiens, UniProt P55212); experiment: Dissociation constant Ki and irreversible rate constant k3 for irreversible inhibitors (Mch2)
T3 sequence (P55212 24-179 limits assumed): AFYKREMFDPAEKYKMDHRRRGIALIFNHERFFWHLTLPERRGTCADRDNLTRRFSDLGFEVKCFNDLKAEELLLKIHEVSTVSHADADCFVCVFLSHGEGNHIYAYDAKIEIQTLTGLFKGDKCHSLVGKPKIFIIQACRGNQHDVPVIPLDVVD
T3 sequence (P55212 194-293 limits assumed): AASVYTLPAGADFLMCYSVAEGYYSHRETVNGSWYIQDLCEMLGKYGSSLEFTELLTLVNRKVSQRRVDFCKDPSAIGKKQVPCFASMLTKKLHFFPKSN

| SMILES | Ki (mICE) | mICE k3/Ki (mICE) | CPP32 k3/Ki (CPP32) | Ki (CPP32) | Ki (MCH-5) | MCH-5 k3/Ki (MCH-5) | Ki (MCH-2) | MCH-2 k3/Ki (MCH-2) |
| --- | --- | --- | --- | --- | --- | --- | --- | --- |
| C[C@H](NC(=O)C(=O)Nc1ccccc1I)C(=O)N[C@@H](CC(=O)O)C(=O)COP(=O)(c1ccccc1)c1ccccc1 [Example 74] | 0.303 µM | 36,300 moles^−1 seconds^−1 | 78,300 moles^−1 seconds^−1 | 0.161 µM | 0.07 µM | 46,300 moles^−1 seconds^−1 | 0.078 µM | 66,200 moles^−1 seconds^−1 |
| CC(C)[C@H](NC(=O)C(=O)Nc1ccccc1-c1ccccc1)C(=O)N[C@@H](CC(=O)O)C(=O)COc1c(F)c(F)cc(F)c1F [Example 83] | 0.135 µM | 127,000 moles^−1 seconds^−1 | 25,400 moles^−1 seconds^−1 | 0.251 µM | 0.03 µM | 65,300 moles^−1 seconds^−1 | 0.085 µM | 31,700 moles^−1 seconds^−1 |
| C[C@H](NC(=O)C(=O)NC1CCCCC1)C(=O)N[C@@H](CC(=O)O)C(=O)COC(=O)c1c(Cl)cccc1Cl [Example 55] | 0.0061 µM | 2,020,000 moles^−1 seconds^−1 | 1,174,000 moles^−1 seconds^−1 | 0.013 µM | 0.0026 µM | 2,140,000 moles^−1 seconds^−1 | 0.0063 µM | 655,000 moles^−1 seconds^−1 |
| C[C@H](NC(=O)C(=O)NCc1cccc2ccccc12)C(=O)N[C@@H](CC(=O)O)C(=O)COC(=O)c1c(Cl)cccc1Cl [Example 34] | 0.0099 µM | 1,160,000 moles^−1 seconds^−1 | 187,000 moles^−1 seconds^−1 | 0.043 µM | 0.0042 µM | 936,000 moles^−1 seconds^−1 | 0.011 µM | 214,000 moles^−1 seconds^−1 |
| C[C@H](NC(=O)C(=O)NCCc1ccccc1)C(=O)N[C@@H](CC(=O)O)C(=O)COP(=O)(c1ccccc1)c1ccccc1 [Example 72] | 0.012 µM | 1,230,000 moles^−1 seconds^−1 | 169,000 moles^−1 seconds^−1 | 0.094 µM | 0.0081 µM | 667,000 moles^−1 seconds^−1 | 0.026 µM | 131,000 moles^−1 seconds^−1 |
| COC(=O)c1cc(OCC(=O)[C@H](CC(=O)O)NC(=O)[C@@H](NC(=O)C(=O)Nc2cccc3ccccc23)C(C)C)no1 [Example 13] | 0.024 µM |  |  | 0.067 µM | 0.023 µM |  | 0.096 µM |  |
| CC(C)[C@H](NC(=O)C(=O)Nc1c(F)c(F)nc(F)c1F)C(=O)N[C@@H](CC(=O)O)C(=O)COc1c(F)c(F)cc(F)c1F [Example 102] | 0.014 µM | 1,220,000 moles^−1 seconds^−1 | 153,000 moles^−1 seconds^−1 | 0.127 µM | 0.01 µM | 389,000 moles^−1 seconds^−1 | 0.022 µM | 170,000 moles^−1 seconds^−1 |
| CC(C)[C@H](NC(=O)C(=O)Nc1ccccc1C(C)(C)C)C(=O)N[C@@H](CC(=O)O)C(=O)COc1c(F)c(F)cc(F)c1F [Example 93] | 0.006 µM | 2,052,000 moles^−1 seconds^−1 | 27,700 moles^−1 seconds^−1 | 0.353 µM | 0.003 µM | 1,165,000 moles^−1 seconds^−1 | 0.041 µM | 112,000 moles^−1 seconds^−1 |
| C[C@H](NC(=O)C(=O)Nc1ccccc1F)C(=O)N[C@@H](CC(=O)O)C(=O)COC(=O)c1c(Cl)cccc1Cl [Example 39] | 0.116 µM | 172,000 moles^−1 seconds^−1 | 68,900 moles^−1 seconds^−1 | 0.202 µM | 0.04 µM | 155,000 moles^−1 seconds^−1 | 0.023 µM | 129,000 moles^−1 seconds^−1 |
| CC(C)[C@H](NC(=O)C(=O)Nc1cccc2ccccc12)C(=O)N[C@@H](CC(=O)O)C(=O)COP(=O)(c1ccccc1)c1ccccc1 [Example 11] | 0.005 µM |  |  | 0.025 µM | 0.0013 µM |  | 0.011 µM |  |
| CC(C)[C@H](NC(=O)C(=O)Nc1ccncc1)C(=O)N[C@@H](CC(=O)O)C(=O)COc1c(F)c(F)cc(F)c1F [Example 101] | 22.6 µM | 912 mol⁻¹ s⁻¹ | 511 mol⁻¹ s⁻¹ | 26.1 µM | 1.55 µM | 1,140 moles^−1 seconds^−1 | 0.641 µM | 5,580 moles^−1 seconds^−1 |
| CC(C)[C@H](NC(=O)C(=O)Nc1cccc2ccccc12)C(=O)N[C@@H](CC(=O)O)C(=O)COc1c(F)cccc1F [Example 5] | 0.0074 µM |  |  | 0.041 µM | 0.005 µM |  | 0.025 µM |  |
| CC(NC(=O)C(NC(=O)OCc1ccccc1)C(C)C)C(=O)NC(CC(=O)O)C(=O)CF (stereo not drawn) [refer., Cbz-ValAlaAsp-CH2F, reference compound] (Cbz-Val-Ala-Asp-CH2F; configuration not given here) | 0.015 µM | 214,000 moles^−1 seconds^−1 | 12,200 moles^−1 seconds^−1 | 0.82 µM | 0.018 µM | 83,300 moles^−1 seconds^−1 | 0.594 µM | 2,950 moles^−1 seconds^−1 |
| CC(C)[C@H](NC(=O)C(=O)Nc1ccccn1)C(=O)N[C@@H](CC(=O)O)C(=O)COc1c(F)c(F)cc(F)c1F [Example 100] | 0.206 µM | 36,000 moles^−1 seconds^−1 | 9,850 moles^−1 seconds^−1 | 2.25 µM | 0.157 µM | 19,500 moles^−1 seconds^−1 | 0.188 µM | 11,600 moles^−1 seconds^−1 |
| CC(C)[C@H](NC(=O)C(=O)NC12CC3CC(CC(C3)C1)C2)C(=O)N[C@@H](CC(=O)O)C(=O)COc1c(F)c(F)cc(F)c1F [Example 89] | 0.052 µM | 184,000 moles^−1 seconds^−1 | 6,330 moles^−1 seconds^−1 | 1.51 µM | 0.04 µM | 59,900 moles^−1 seconds^−1 | 0.152 µM | 10,700 moles^−1 seconds^−1 |
| CC(C)[C@H](NC(=O)C(=O)Nc1ccccc1I)C(=O)N[C@@H](CC(=O)O)C(=O)COc1c(F)c(F)cc(F)c1F [Example 107] | 0.007 µM | 1,260,000 moles^−1 seconds^−1 | 42,300 moles^−1 seconds^−1 | 0.51 µM | 0.004 µM | 1,026,000 moles^−1 seconds^−1 | 0.02 µM | 137,000 moles^−1 seconds^−1 |
| C[C@H](NC(=O)C(=O)NCc1ccccc1)C(=O)N[C@@H](CC(=O)O)C(=O)COC(=O)c1c(Cl)cccc1Cl [Example 52] | 0.34 µM | 59,100 moles^−1 seconds^−1 | 600,000 moles^−1 seconds^−1 | 0.029 µM | 0.062 µM | 203,000 moles^−1 seconds^−1 | 0.02 µM | 244,000 moles^−1 seconds^−1 |
| C[C@H](NC(=O)C(=O)Nc1ccc(F)cc1)C(=O)N[C@@H](CC(=O)O)C(=O)COC(=O)c1c(Cl)cccc1Cl [Example 44] | 1.45 µM | 11,700 moles^−1 seconds^−1 | 22,700 moles^−1 seconds^−1 | 1.28 µM | 0.462 µM | 18,700 moles^−1 seconds^−1 | 0.142 µM | 18,600 moles^−1 seconds^−1 |
| CC(C)[C@H](NC(=O)C(=O)Nc1cccc2ccccc12)C(=O)N[C@@H](CC(=O)O)C(=O)COc1cccc2ccccc12 [Example 18] | 0.033 µM | 254,000 moles^−1 seconds^−1 | 180,000 moles^−1 seconds^−1 | 0.046 µM | 0.01 µM | 177,000 moles^−1 seconds^−1 | 0.02 µM | 83,700 moles^−1 seconds^−1 |
| CC(C)[C@H](NC(=O)C(=O)Nc1cccc2ccccc12)C(=O)N[C@@H](CC(=O)O)C(=O)COC(=O)c1c(Cl)cccc1Cl [Example 4] | 0.0061 µM |  |  | 0.014 µM | 0.004 µM |  | 0.009 µM |  |
| C[C@H](NC(=O)C(=O)Nc1ccccc1-c1ccccc1)C(=O)N[C@@H](CC(=O)O)C(=O)COP(=O)(c1ccccc1)c1ccccc1 [Example 30] | 0.022 µM | 345,000 moles^−1 seconds^−1 | 243,000 moles^−1 seconds^−1 | 0.042 µM | 0.024 µM | 207,000 moles^−1 seconds^−1 | 0.025 µM | 317,000 moles^−1 seconds^−1 |
